# Measurements: patent publication US10287267B2, “Isoquinolin-3-yl carboxamides and preparation and use thereof” (Samumed, LLC, priority 2016, dated 2019)
# Read-outs that look alike come from different tables or passages of the source.
# Legend:
# [1] = tested on: SW480 colon carcinoma cells; test: Cell viability assay (CellTiter-Glo); assay type: cell-based, human; details: for EC50: SW480 cells, CellTiter-Glo, four days incubation; for inhibition at 10 µM: SW480, read-out: percent inhibition at 10 μM
# [2] = tested on: α-smooth muscle actin (αSMA) positive LL29 cells; test: Inhibition of fibrotic process: αSMA in TGF-β1 treated primary human fibroblasts from IPF patients; assay type: cell-based; details: for EC50: Table 8, LL29 fibroblasts from IPF patients, TGF-β1 20 ng/mL, 4 days; for inhibition at 10 µM: read-out: percent value in parentheses beside EC50 >10 μM;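 for all read-outs here: controls were TGF-β1 stimulated wells with DMSO vehicle (positive) and cells given DMSO alone (negative), cultured in F12 medium with 1% fetal bovine serum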
# [3] = tested on: Wnt pathway (Sp5-Luc reporter, TCF/LEF binding sites) in SW480 colon carcinoma cells; test: Screening assay for Wnt activity: Sp5-Luc reporter gene assay; assay type: cell-based, human; details: for EC50: Sp5-Luc reporter, SW480 cells, 36 to 48 hours; for inhibition at 10 µM: SW480, read-out: percent inhibition at 10 μM;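 for all read-outs here: firefly luciferase luminescence read in stably transduced SW480 cells carrying the Sp5 promoter reporter with eight TCF/LEF sites, compounds given in 0.1% DMSO final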
# Procedure: The screening assay for Wnt activity is described as follows.
# Following incubation, 15 μl of BriteLite Plus luminescence reagent (Perkin Elmer) was added to each well of the 384-well assay plates. The plates were placed on an orbital shaker for 2 min and then luminescence was quantified using the Envision (Perkin Elmer) plate reader.
# [4] = tested on: Tau phosphorylation at Ser396 (pSer396); test: Tau phosphorylation assay (pSer396 ELISA / western blot) in SH-SY5Y cells; assay type: cell-based, human; details: SH-SY5Y cells, overnight (16-18 h) exposure, read-out: pSer396 Tau EC50;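 note: EC50 for reduction of Tau pSer396 in lysed cells, measured by colorimetric ELISA or chemiluminescent western blot, both using the same pSer396 antibody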
# [5] = biological target: recombinant GSK3β kinase (Homo sapiens (Human), UniProt P49841); test: GSK3β kinase assay (Ser/Thr 09 peptide Z-lyte FRET); assay type: biochemical; details: 46 μM ATP, 1 h room temperature;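 note: kinase activity read as coumarin to fluorescein emission ratio, 11-point threefold dilutions from 10 µM to 0.0003 µM in duplicate, unphosphorylated and phosphorylated peptide as 0% and 100% controls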
# [6] = biological target: recombinant DYRK1A kinase (Homo sapiens (Human), UniProt Q13627); test: DYRK1A kinase assay (Ser/Thr 18 peptide Z-lyte FRET); assay type: biochemical; details: 30 μM ATP, 1 h room temperature;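 note: Read-out is the coumarin to fluorescein emission ratio, referenced to unphosphorylated (0%) and phosphorylated (100%) Ser/Thr 18 peptide controls, values from dose-response curves by non-linear regression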
# [7] = tested on: IL-6; test: IL-6 inhibition in LPS-stimulated human peripheral blood mononuclear cells (HTRF); assay type: cell-based; details: for EC50: Table 9, huPBMCs, LPS 50 ng/mL, 22 hours, dose-response starting from 10 μM; for inhibition at 10 µM: read-out: percent value in parentheses beside EC50 >10 μM;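 for all read-outs here: IL-6 detected by HTRF with an XL665- and Cryptate-labelled anti-IL-6 antibody pair, samples run in duplicate, EC50 obtained from a four-parameter Levenberg-Marquardt curve fit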
# Procedure: After 22 hour incubation, a mixture of anti-IL6 XL665 and anti-IL-6 Cryptate diluted in reconstitution buffer (Catalog #62IL6PEC, Cisbio Inc., Bedford, Mass.) was added to each well. […] All samples were processed in duplicate. […] EC50 was determined using software generated by Dotmatics Limited (Windhill Bishops Stortford Herts, UK) using the Levenberg-Marquardt 4 parameter fitting procedure with finite different gradients.
# [8] = Homo sapiens, Fibroblast, 96 h, dose-response 10 μM to 0.94 nM
# recombinant GSK3β kinase, sequence (P49841 whole entry): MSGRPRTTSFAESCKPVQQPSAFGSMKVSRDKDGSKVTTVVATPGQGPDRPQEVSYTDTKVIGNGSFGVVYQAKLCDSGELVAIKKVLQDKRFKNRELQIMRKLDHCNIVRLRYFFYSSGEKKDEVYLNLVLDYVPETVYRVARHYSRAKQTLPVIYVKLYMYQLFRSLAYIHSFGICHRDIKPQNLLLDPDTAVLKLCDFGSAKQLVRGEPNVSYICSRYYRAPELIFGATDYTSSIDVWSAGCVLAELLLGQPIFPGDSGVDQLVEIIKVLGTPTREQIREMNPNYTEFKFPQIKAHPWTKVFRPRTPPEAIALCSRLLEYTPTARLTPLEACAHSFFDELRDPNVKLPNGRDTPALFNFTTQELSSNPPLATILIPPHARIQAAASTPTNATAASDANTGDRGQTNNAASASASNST
Compound,"EC50 ([1]; Homo sapiens, 96 h)","EC50 [2, 8]",EC50 ([3]; Homo sapiens),EC50 ([4]; Homo sapiens),EC50 [5],EC50 [6],"EC50 ([7]; Homo sapiens, PBMC)",inhibition at 10 µM ([1]; Homo sapiens),inhibition at 10 µM ([3]; Homo sapiens),"inhibition at 10 µM ([7]; Homo sapiens, PBMC)","inhibition at 10 µM ([2]; Homo sapiens, Fibroblast)",EC50 [1],EC50 ([2]; dose-response 10 μM to […]),EC50 [3],EC50 [4],EC50 [7]
"Cn1cc(-c2ccc3cnc(NC(=O)CN4CCC5(CC4)CC5)cc3c2)cn1 [Compound 296, N-(6-(1-Methyl-1H-pyrazol-4-yl)isoquinolin-3-yl)-2-(6-azaspiro[2.5]octan-6-yl)acetamide]",3460 nM,1960 nM,3480 nM,978 nM,80 nM,14.3 nM,1580 nM,–,–,–,–,–,–,–,–,–
"O=C(Nc1cc2cc(-c3cnn(C4CC4)c3)ccc2cn1)C1CCN(CCC(F)(F)F)CC1 [Compound 297, N-(6-(1-Cyclopropyl-1H-pyrazol-4-yl)isoquinolin-3-yl)-1-(3,3,3-trifluoropropyl)piperidine-4-carboxamide]",5720 nM,447 nM,4810 nM,1420 nM,155 nM,23.7 nM,1170 nM,–,–,–,–,–,–,–,–,–
"Cn1ncc(-c2ccc3cnc(NC(=O)C4CCC(F)(F)CC4)cc3c2)c1CN1CCC1 [Compound 298, N-(6-(5-(Azetidin-1-ylmethyl)-1-methyl-1H-pyrazol-4-yl)isoquinolin-3-yl)-4,4-difluorocyclohexane-1-carboxamide]",2380 nM,1340 nM,3230 nM,1390 nM,125 nM,13.5 nM,5530 nM,–,–,–,–,–,–,–,–,–
"Cn1ncc(-c2ccc3cnc(NC(=O)C4CCC(F)(F)CC4)cc3c2)c1CN1CCCC1 [Compound 299, 4,4-Difluoro-N-(6-(1-methyl-5-(pyrrolidin-1-ylmethyl)-1H-pyrazol-4-yl)isoquinolin-3-yl)cyclohexane-1-carboxamide]",2240 nM,1210 nM,1530 nM,573 nM,44 nM,6.7 nM,4530 nM,–,–,–,–,–,–,–,–,–
"Cn1ncc(-c2ccc3cnc(NC(=O)C4CCC(F)(F)CC4)cc3c2)c1CN1CCCCC1 [Compound 300, 4,4-Difluoro-N-(6-(1-methyl-5-(piperidin-1-ylmethyl)-1H-pyrazol-4-yl)isoquinolin-3-yl)cyclohexane-1-carboxamide]",1300 nM,511 nM,1120 nM,222 nM,31 nM,8.2 nM,2740 nM,–,–,–,–,–,–,–,–,–
"Cn1cc(-c2ccc3cnc(NC(=O)C4CC5(CCN(CCF)CC5)C4)cc3c2)cn1 [Compound 301, 7-(2-Fluoroethyl)-N-(6-(1-methyl-1H-pyrazol-4-yl)isoquinolin-3-yl)-7-azaspiro[3.5]nonane-2-carboxamide]",550 nM,4810 nM,467 nM,108 nM,10 nM,2 nM,393 nM,–,–,–,–,–,–,–,–,–
"CN(CC(=O)Nc1cc2cc(-c3cnn(C)c3)ccc2cn1)C1CCC1 [Compound 302, 2-(Cyclobutyl(methyl)amino)-N-(6-(1-methyl-1H-pyrazol-4-yl)isoquinolin-3-yl)acetamide]",> 10000 nM,901 nM,3650 nM,628 nM,38 nM,7.7 nM,7700 nM,34.9%,–,–,–,–,–,–,–,–
"CCN(CC)CC(=O)Nc1cc2cc(-c3cnn(C)c3)ccc2cn1 [Compound 303, 2-(Diethylamino)-N-(6-(1-methyl-1H-pyrazol-4-yl)isoquinolin-3-yl) acetamide]",7800 nM,817 nM,9830 nM,783 nM,89 nM,8 nM,5240 nM,–,–,–,–,–,–,–,–,–
"[2H]C([2H])([2H])n1cc(-c2ccc3cnc(NC(=O)C4CCN(CCC(F)(F)F)CC4)cc3c2)cn1 [Compound 304, N-(6-(1-(Methyl-d3)-1H-pyrazol-4-yl)isoquinolin-3-yl)-1-(3,3,3-trifluoropropyl)piperidine-4-carboxamide]",1340 nM,150 nM,2320 nM,210 nM,29 nM,2.7 nM,1140 nM,–,–,–,–,–,–,–,–,–
"[2H]C([2H])([2H])n1cc(-c2ccc3cnc(NC(=O)CN4CCCC4)cc3c2)cn1 [Compound 305, N-(6-(1-(Methyl-d3)-1H-pyrazol-4-yl)isoquinolin-3-yl)-2-(pyrrolidin-1-yl) acetamide]",1650 nM,5510 nM,1940 nM,247 nM,51 nM,8.2 nM,1140 nM,–,–,–,–,–,–,–,–,–
"[2H]C([2H])([2H])n1cc(-c2ccc3cnc(NC(=O)CN4CCCCC4)cc3c2)cn1 [Compound 306, N-(6-(1-(Methyl-d3)-1H-pyrazol-4-yl)isoquinolin-3-yl)-2-(piperidin-1-yl) acetamide]",3200 nM,282 nM,3700 nM,592 nM,66 nM,7.2 nM,2520 nM,–,–,–,–,–,–,–,–,–
"Cc1cc(-c2ccc3cnc(NC(=O)C4CCN(CCC(F)(F)F)CC4)cc3c2)on1 [Compound 307, N-(6-(3-Methylisoxazol-5-yl)isoquinolin-3-yl)-1-(3,3,3-trifluoropropyl) piperidine-4-carboxamide]",> 10000 nM,7150 nM,> 10000 nM,2080 nM,5260 nM,6220 nM,> 10000 nM,–,25.9%,4.3%,–,–,–,–,–,–
"O=C(Nc1cc2cc(-c3cnco3)ccc2cn1)C1CCN(CCC(F)(F)F)CC1 [Compound 308, N-(6-(Oxazol-5-yl)isoquinolin-3-yl)-1-(3,3,3-trifluoropropyl)piperidine-4-carboxamide]",> 10000 nM,> 10000 nM,1810 nM,361 nM,107 nM,2.4 nM,9230 nM,32%,–,–,27.6%,–,–,–,–,–
"Cc1nnc(-c2ccc3cnc(NC(=O)C4(F)CCN(CC(C)C)CC4)cc3c2)o1 [Compound 309, 4-Fluoro-1-isobutyl-N-(6-(5-methyl-1,3,4-oxadiazol-2-yl)isoquinolin-3-yl) piperidine-4-carboxamide]",> 10000 nM,14 nM,> 10000 nM,1220 nM,120 nM,34.3 nM,> 10000 nM,9.6%,43.5%,4.5%,–,–,–,–,–,–
"Cn1cc(-c2ccc3cnc(NC(=O)C4CCN(CC5(C(F)(F)F)CC5)CC4)cc3c2)cn1 [Compound 310, N-(6-(1-Methyl-1H-pyrazol-4-yl)isoquinolin-3-yl)-1-((1-(trifluoromethyl)cyclopropyl)methyl)piperidine-4-carboxamide]",5350 nM,294 nM,1460 nM,628 nM,105 nM,6.2 nM,1170 nM,–,–,–,–,–,–,–,–,–
"C[C@H](F)CN1CCC(C(=O)Nc2cc3cc(-c4cnn(C)c4)ccc3cn2)CC1 [Compound 311, (S)-1-(2-Fluoropropyl)-N-(6-(1-methyl-1H-pyrazol-4-yl)isoquinolin-3-yl) piperidine-4-carboxamide]",–,–,–,–,20 nM,1.9 nM,–,–,–,–,–,751 nM,76 nM,578 nM,163 nM,396 nM
"Cn1cc(-c2ccc3cnc(NC(=O)C(C)(C)F)cc3c2)nn1 [Compound 312, 2-Fluoro-2-methyl-N-(6-(1-methyl-1H-1,2,3-triazol-4-yl)isoquinolin-3-yl) propanamide]",> 10000 nM,> 10000 nM,> 10000 nM,762 nM,31 nM,12.7 nM,> 10000 nM,–,23.8%,3.9%,36.5%,–,–,–,–,–
"C[C@@H](F)CN1CCC(C(=O)Nc2cc3cc(-c4cnn(C)c4)ccc3cn2)CC1 [Compound 313, (R)-1-(2-Fluoropropyl)-N-(6-(1-methyl-1H-pyrazol-4-yl)isoquinolin-3-yl) piperidine-4-carboxamide]",711 nM,105 nM,577 nM,330 nM,39 nM,2.5 nM,1010 nM,–,–,–,–,–,–,–,–,–
"CC(C(=O)Nc1cc2cc(-c3cnn(C)c3)ccc2cn1)N1CCCCC1 (stereo not shown) [Compound 314, N-(6-(1-Methyl-1H-pyrazol-4-yl)isoquinolin-3-yl)-2-(piperidin-1-yl) propanamide]",1200 nM,45 nM,859 nM,128 nM,12 nM,22.1 nM,1270 nM,–,–,–,–,–,–,–,–,–
"[2H]C1([2H])CCC([2H])([2H])N1CC(=O)Nc1cc2cc(-c3cnn(C)c3)ccc2cn1 [Compound 315, N-(6-(1-Methyl-1H-pyrazol-4-yl)isoquinolin-3-yl)-2-(pyrrolidin-1-yl-2,2,5,5-d4)acetamide]",1250 nM,1820 nM,1590 nM,346 nM,44 nM,12.3 nM,819 nM,–,–,–,–,–,–,–,–,–
